Laboratory results from US20030130336A1, “Method of determining the activity of a central nervous system drug on striatal dopamine transporter populations” (Pfizer Inc., priority 2002, published 2003).
Where a name gives a salt, the structure may show the parent alone.

Biological target: T1, dopamine transporters (DAT) in the striatal nuclei (Homo sapiens, UniProt Q01959)
T1 construct: from tissue; host or cells: striatum (caudate and putamen) of living volunteers, imaged in vivo by SPECT
Test: [123I]β-CIT SPECT imaging of striatal DAT binding (V3″ ratio)
Format: in vivo

T1 sequence (Q01959 whole entry): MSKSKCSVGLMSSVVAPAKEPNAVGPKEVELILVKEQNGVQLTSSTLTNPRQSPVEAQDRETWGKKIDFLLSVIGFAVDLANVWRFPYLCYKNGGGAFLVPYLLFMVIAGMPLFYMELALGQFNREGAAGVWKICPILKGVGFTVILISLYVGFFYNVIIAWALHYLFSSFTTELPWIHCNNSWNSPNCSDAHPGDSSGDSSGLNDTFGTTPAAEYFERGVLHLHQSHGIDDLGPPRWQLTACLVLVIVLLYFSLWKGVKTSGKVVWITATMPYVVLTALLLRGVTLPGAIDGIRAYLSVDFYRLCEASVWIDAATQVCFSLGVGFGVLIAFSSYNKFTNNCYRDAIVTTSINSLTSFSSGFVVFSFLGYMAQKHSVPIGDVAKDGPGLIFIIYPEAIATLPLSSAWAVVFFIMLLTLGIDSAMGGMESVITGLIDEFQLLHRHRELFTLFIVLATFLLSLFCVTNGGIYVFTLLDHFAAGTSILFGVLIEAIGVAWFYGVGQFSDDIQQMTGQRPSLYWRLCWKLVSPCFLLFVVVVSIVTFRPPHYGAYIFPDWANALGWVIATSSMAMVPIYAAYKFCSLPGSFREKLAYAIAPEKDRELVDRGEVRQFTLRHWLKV

- St-V3″ (Mean ± SD), Scan 2 (striatum, specific to non-specific [123I]β-CIT binding, Day 8, Group 1 bupropion HCl SR 100 mg po qAM, Group 2 citalopram 20 mg po BID, days 1-8, healthy volunteers): 7.42 ± 1.13
- St-V3″ (Mean ± SD), Scan 3 (striatum, Day 16, Group 1 bupropion HCl SR 100 mg po BID days 9-16, Group 2 citalopram 20 mg po BID plus bupropion HCl SR 100 mg qAM days 9-16): 7.37 ± 1.69
- change in striatal DAT binding (versus baseline Scan 1, RMANOVA, paired t-test with Bonferroni correction): did not lead to any significant changes
Compound: CC(NC(C)(C)C)C(=O)c1cccc(Cl)c1 (stereo not drawn) [bupropion hydrochloride]
